What was measured:
galium = assay: Test D postemergence; assay type: in vivo, Galium aparine; settings: scale 0 to 100
Summary of the method: (§1)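 Seeds are planted in silt loam and treated preemergence, while parallel plantings in a peat moss/vermiculite medium with starter nutrients receive postemergence sprays at the 1- to 4-leaf stage. All formulations use a non-phytotoxic solvent mixture with surfactant. Plants are kept in a controlled growth environment and rated visually after 14–21 days.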

buckwheat, wild = assay: Test D postemergence; assay type: in vivo, Polygonum convolvulus; settings: scale 0 to 100
Text: (§2) Seeds of plant species selected from bluegrass (annual bluegrass, Poa annua), blackgrass (Alopecurus myosuroides), canarygrass (littleseed canarygrass, Phalaris minor), chickweed (common chickweed, Stellaria media), galium (catchweed bedstraw, Galium aparine), bromegrass, downy (downy bromegrass, Bromus tectorum), field poppy (Papaver rhoeas), field violet (Viola arvensis), foxtail, green (green foxtail, Setaria viridis), deadnettle (henbit deadnettle, Lamium amplexicaule), ryegrass, Italian (Italian ryegrass, Lolium multiflorum), kochia (Kochia scoparia), lambsquarters (Chenopodium album), oilseed rape (Brassica napus), pigweed (redroot pigweed, Amaranthus retroflexus), chamomile (scentless chamomile, Matricaria inodora), speedwell (bird's-eye speedwell, Veronica persica), barley, spring (spring barley, Hordeum vulgare), wheat, spring (spring wheat, Triticum aestivum), buckwheat, wild (wild buckwheat, Polygonum convolvulus), mustard, wild (wild mustard, Sinapis arvensis), oat, wild (wild oat, Avena fatua), radish, wild (wild radish, Raphanus raphanistrum), windgrass (Apera spica-venti), Russian thistle (Salsola kali), barley, winter (winter barley, Hordeum vulgare), and wheat, winter (winter wheat, Triticum aestivum) were planted into a silt loam soil and treated preemergence with test chemicals formulated in a non-phytotoxic solvent mixture which included a surfactant.
(§3) At the same time, these species were planted in pots containing Redi-Earth® planting medium (Scotts Company, 14111 Scottslawn Road, Marysville, Ohio 43041) comprising spaghnum peat moss, vermiculite, wetting agent and starter nutrients and treated with postemergence applications of the test chemicals formulated in the same manner. Plants ranged in height from 2 to 18 cm (1- to 4-leaf stage). Treated plants and controls were maintained in a controlled growth environment for 14 to 21 days after which time all species were compared to controls and visually evaluated. Plant response ratings, summarized in Table D, are based on a scale of 0 to 100 where 0 is no effect and 100 is complete control. A dash (-) response means no test result.

speedwell = assay: Test D preemergence; assay type: in vivo, Veronica persica; settings: for Plant response rating, Speedwell: Preemergence, scale 0 to 100
Summary of the method: as §1

field poppy = assay: Test D postemergence; assay type: in vivo, Papaver rhoeas; settings: scale 0 to 100
Summary of the method: as §1

kochia [1] = assay: Test D postemergence; assay type: in vivo, Kochia scoparia; settings: scale 0 to 100
Text: as §2, §3

deadnettle = assay: Test D postemergence; assay type: in vivo, Lamium amplexicaule; settings: scale 0 to 100
Summary of the method: as §1

bluegrass [2] = assay: Test D preemergence; assay type: in vivo, Poa annua; settings: for Plant response rating, Bluegrass: Preemergence, scale 0 to 100
Summary of the method: as §1

kochia [3] = assay: Test D preemergence; assay type: in vivo, Kochia scoparia; settings: for Plant response rating, Kochia: Preemergence, scale 0 to 100
Text: as §2, §3

canarygrass = assay: Test D postemergence; assay type: in vivo, Phalaris minor; settings: scale 0 to 100
Text: as §2, §3

field violet [4] = assay: Test D preemergence; assay type: in vivo, Viola arvensis; settings: for Plant response rating, Field Violet: Preemergence, scale 0 to 100
Text: as §2, §3

mustard, wild = assay: Test D preemergence; assay type: in vivo, Sinapis arvensis; settings: for Plant response rating, Mustard, Wild: Preemergence, scale 0 to 100
Text: as §2, §3

bromegrass, downy [5] = assay: Test D postemergence; assay type: in vivo, Bromus tectorum; settings: scale 0 to 100
Summary of the method: as §1

chickweed = assay: Test D postemergence; assay type: in vivo, Stellaria media; settings: scale 0 to 100
Summary of the method: as §1

field violet [6] = assay: Test D postemergence; assay type: in vivo, Viola arvensis; settings: scale 0 to 100
Summary of the method: as §1

foxtail, green = assay: Test D preemergence; assay type: in vivo, Setaria viridis; settings: for Plant response rating, Foxtail, Green: Preemergence, scale 0 to 100
Text: as §2, §3

windgrass = assay: Test D postemergence; assay type: in vivo, Apera spica-venti; settings: scale 0 to 100
Summary of the method: as §1

radish, wild = assay: Test D preemergence; assay type: in vivo, Raphanus raphanistrum; settings: for Plant response rating, Radish, Wild: Preemergence, scale 0 to 100
Text: as §2, §3

bluegrass [7] = assay: Test D postemergence; assay type: in vivo, Poa annua; settings: scale 0 to 100
Summary of the method: as §1

chamomile = assay: Test D preemergence; assay type: in vivo, Matricaria inodora; settings: for Plant response rating, Chamomile: Preemergence, scale 0 to 100
Summary of the method: as §1

bromegrass, downy [8] = assay: Test D preemergence; assay type: in vivo, Bromus tectorum; settings: for Plant response rating, Bromegrass, Downy: Preemergence, scale 0 to 100
Summary of the method: as §1

[9] = 16 g ai/ha, taken as preemergence

O=C(NC1CC1)c1cc(CCF)n(Cc2ccnc(C(F)(F)F)c2)n1 [Compound 176]
100: Plant response rating, Speedwell (speedwell; 62 g ai/ha) | Plant response rating, Speedwell (speedwell; 125 g ai/ha) | Plant response rating, Kochia (kochia [3]; 125 g ai/ha) | Plant response rating, Mustard, Wild (mustard, wild; 125 g ai/ha) | Plant response rating, Radish, Wild (radish, wild; 125 g ai/ha)
20: Plant response rating, Bluegrass (bluegrass [2]; 125 g ai/ha) | Canarygrass plant response rating (canarygrass; Postemergence, 125 g ai/ha) | Plant response rating, Chickweed (chickweed; Postemergence, 16 g ai/ha)
45: Plant response rating, Field Poppy (field poppy; Postemergence, 16 g ai/ha) | Deadnettle plant response rating (deadnettle; Postemergence, 125 g ai/ha) | Plant response rating, Kochia (kochia [3]; 62 g ai/ha)
55: Plant response rating, Galium (galium; Postemergence, 16 g ai/ha) | Buckwheat, Wild plant response rating (buckwheat, wild; Postemergence, 31 g ai/ha) | Buckwheat, Wild plant response rating (buckwheat, wild; postemergence, 62 g ai/ha)
40: Plant response rating, Foxtail, Green (foxtail, green; 125 g ai/ha)
50: Field Poppy plant response rating (field poppy; Postemergence, 31 g ai/ha) | Field Poppy plant response rating (field poppy; postemergence, 62 g ai/ha) | Plant response rating, Field Violet (field violet [4]; 62 g ai/ha) | Field Violet plant response rating (field violet [6]; Postemergence, 31 g ai/ha) | Field Violet plant response rating (field violet [6]; postemergence, 62 g ai/ha) | Plant response rating, Chamomile (chamomile; 125 g ai/ha)
5: Plant response rating (scale 0 to 100), Kochia (kochia [3]; [9]) | Plant response rating, Canarygrass (canarygrass; Postemergence, 16 g ai/ha) | Plant response rating, Windgrass (windgrass; Postemergence, 16 g ai/ha) | Plant response rating, Bluegrass (bluegrass [7]; Postemergence, 16 g ai/ha) | Plant response rating (scale 0 to 100), Chamomile (chamomile; [9]) | Plant response rating, Chamomile (chamomile; 31 g ai/ha)
70: Kochia plant response rating (kochia [1]; Postemergence, 125 g ai/ha) | Field Violet plant response rating (field violet [6]; Postemergence, 125 g ai/ha)
90: Plant response rating, Mustard, Wild (mustard, wild; 62 g ai/ha)
10: Plant response rating, Deadnettle (deadnettle; Postemergence, 16 g ai/ha) | Plant response rating, Bluegrass (bluegrass [2]; 62 g ai/ha) | Plant response rating (scale 0 to 100), Mustard, Wild (mustard, wild; [9]) | Plant response rating, Bromegrass, Downy (bromegrass, downy [5]; Postemergence, 16 g ai/ha) | Plant response rating, Chamomile (chamomile; 62 g ai/ha)
30: Plant response rating, Buckwheat, Wild (buckwheat, wild; Postemergence, 16 g ai/ha) | Plant response rating, Kochia (kochia [1]; Postemergence, 16 g ai/ha) | Bromegrass, Downy plant response rating (bromegrass, downy [5]; Postemergence, 125 g ai/ha)
15: Plant response rating (scale 0 to 100), Speedwell (speedwell; [9]) | Canarygrass plant response rating (canarygrass; Postemergence, 31 g ai/ha) | Canarygrass plant response rating (canarygrass; postemergence, 62 g ai/ha) | Plant response rating, Foxtail, Green (foxtail, green; 62 g ai/ha) | Windgrass plant response rating (windgrass; Postemergence, 31 g ai/ha) | Windgrass plant response rating (windgrass; postemergence, 62 g ai/ha) | Plant response rating (scale 0 to 100), Radish, Wild (radish, wild; [9]) | Bluegrass plant response rating (bluegrass [7]; Postemergence, 31 g ai/ha) | Bluegrass plant response rating (bluegrass [7]; postemergence, 62 g ai/ha) | Plant response rating, Bromegrass, Downy (bromegrass, downy [8]; 62 g ai/ha)
75: Plant response rating, Radish, Wild (radish, wild; 62 g ai/ha)
0: Plant response rating (scale 0 to 100), Bluegrass (bluegrass [2]; [9]) | Plant response rating, Bluegrass (bluegrass [2]; 31 g ai/ha) | Plant response rating (scale 0 to 100), Field Violet (field violet [4]; [9]) | Plant response rating (scale 0 to 100), Foxtail, Green (foxtail, green; [9]) | Plant response rating (scale 0 to 100), Bromegrass, Downy (bromegrass, downy [8]; [9]) | Plant response rating, Bromegrass, Downy (bromegrass, downy [8]; 31 g ai/ha)
35: Deadnettle plant response rating (deadnettle; Postemergence, 31 g ai/ha) | Deadnettle plant response rating (deadnettle; postemergence, 62 g ai/ha) | Chickweed plant response rating (chickweed; Postemergence, 31 g ai/ha) | Chickweed plant response rating (chickweed; postemergence, 62 g ai/ha) | Plant response rating, Field Violet (field violet [6]; Postemergence, 16 g ai/ha)
65: Galium plant response rating (galium; Postemergence, 31 g ai/ha) | Galium plant response rating (galium; Postemergence, 125 g ai/ha) | Galium plant response rating (galium; postemergence, 62 g ai/ha) | Buckwheat, Wild plant response rating (buckwheat, wild; Postemergence, 125 g ai/ha) | Field Poppy plant response rating (field poppy; Postemergence, 125 g ai/ha) | Kochia plant response rating (kochia [1]; Postemergence, 31 g ai/ha) | Kochia plant response rating (kochia [1]; postemergence, 62 g ai/ha) | Plant response rating, Field Violet (field violet [4]; 125 g ai/ha) | Chickweed plant response rating (chickweed; Postemergence, 125 g ai/ha)
25: Bromegrass, Downy plant response rating (bromegrass, downy [5]; Postemergence, 31 g ai/ha) | Bromegrass, Downy plant response rating (bromegrass, downy [5]; postemergence, 62 g ai/ha) | Windgrass plant response rating (windgrass; Postemergence, 125 g ai/ha) | Bluegrass plant response rating (bluegrass [7]; Postemergence, 125 g ai/ha) | Plant response rating, Bromegrass, Downy (bromegrass, downy [8]; 125 g ai/ha)

Reference: US20150105252A1, “SUBSTITUTED PYRAZOLES AS HERBICIDES” (E I DU PONT DE NEMOURS AND COMPANY, priority 2013, published 2015)
